# In patent US12493040B2, “Cancer detection method using sense of smell of nematode” (HIROTSU BIO SCIENCE INC., priority 2013, dated 2025):
# Test system: RNAi-treated eri-1 (mg366) nematodes
# Assay: RNAi screening of olfactory receptor genes: chemotaxis assay of RNAi-treated nematodes to odorants
# Format: in vivo, Caenorhabditis elegans
# Conditions: repellent or high concentration of attractant
# In short: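 Chemotaxis of adult RNAi-fed eri-1 (mg366) nematodes (30–50 per test) was measured toward low (1 μl, 10^−3 or 10^−4 dilution) or high (1 and 5 μl neat) odorant doses. Knockdown: 4 days feeding on E. coli from Ahringer library with IPTG and ampicillin. Differences called by z score at ±1.96, weaker cutoff ±0.96.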
smiles,measurement,setting,value
CCCCCCCCO [octanol],chemotaxis index,Control nematodes,−0.68 ± 0.018
same,chemotaxis index,srh-4 RNAi-treated nematodes,−0.17
same,chemotaxis index,srh-7 RNAi-treated nematodes,−0.65
same,chemotaxis index,srh-8 RNAi-treated nematodes,−0.80
same,chemotaxis index,srh-10 RNAi-treated nematodes,−0.45
same,chemotaxis index,srh-11 RNAi-treated nematodes,−0.19
same,chemotaxis index,srh-15 RNAi-treated nematodes,−0.85
same,chemotaxis index,srh-16 RNAi-treated nematodes,−0.89
same,chemotaxis index,srh-18 RNAi-treated nematodes,−0.65
same,chemotaxis index,srh-19 RNAi-treated nematodes,−0.33
same,chemotaxis index,srh-22 RNAi-treated nematodes,−0.48
same,chemotaxis index,srh-23 RNAi-treated nematodes,−0.90
same,chemotaxis index,srh-24 RNAi-treated nematodes,−0.56
same,chemotaxis index,srh-25 RNAi-treated nematodes,−0.90
same,chemotaxis index,srh-27 RNAi-treated nematodes,−0.68
same,chemotaxis index,srh-28 RNAi-treated nematodes,−0.73
same,chemotaxis index,srh-36 RNAi-treated nematodes,−0.72
same,chemotaxis index,srh-37 RNAi-treated nematodes,−0.88
same,chemotaxis index,srh-39 RNAi-treated nematodes,−0.50
same,chemotaxis index,srh-40 RNAi-treated nematodes,−0.92
same,chemotaxis index,srh-41 RNAi-treated nematodes,−0.80
same,chemotaxis index,srh-44 RNAi-treated nematodes,−0.52
same,chemotaxis index,srh-45 RNAi-treated nematodes,−0.87
same,chemotaxis index,srh-46 RNAi-treated nematodes,−0.87
same,chemotaxis index,srh-48 RNAi-treated nematodes,−0.83
same,chemotaxis index,srh-49 RNAi-treated nematodes,−0.57
same,chemotaxis index,srh-50 RNAi-treated nematodes,−0.89
same,chemotaxis index,srh-51 RNAi-treated nematodes,−0.89
same,chemotaxis index,srh-52 RNAi-treated nematodes,−0.79
same,chemotaxis index,srh-55 RNAi-treated nematodes,−0.95
same,chemotaxis index,srh-59 RNAi-treated nematodes,−0.55
same,chemotaxis index,srh-60 RNAi-treated nematodes,−0.52
same,chemotaxis index,srh-61 RNAi-treated nematodes,−0.77
same,chemotaxis index,srh-67 RNAi-treated nematodes,−0.66
same,chemotaxis index,srh-68 RNAi-treated nematodes,−0.79
same,chemotaxis index,srh-69 RNAi-treated nematodes,−0.61
same,chemotaxis index,srh-70 RNAi-treated nematodes,−0.80
same,chemotaxis index,srh-71 RNAi-treated nematodes,−0.60
same,chemotaxis index,srh-72 RNAi-treated nematodes,−0.62
same,chemotaxis index,srh-74 RNAi-treated nematodes,−0.89
same,chemotaxis index,srh-75 RNAi-treated nematodes,−0.59
same,chemotaxis index,srh-77 RNAi-treated nematodes,−0.31
same,chemotaxis index,srh-79 RNAi-treated nematodes,−0.17
same,chemotaxis index,srh-80 RNAi-treated nematodes,−0.39
same,chemotaxis index,srh-82 RNAi-treated nematodes,−0.65
same,chemotaxis index,srh-83 RNAi-treated nematodes,−0.33
same,chemotaxis index,srh-97 RNAi-treated nematodes,−0.64
same,chemotaxis index,srh-99 RNAi-treated nematodes,−0.61
same,chemotaxis index,srh-100 RNAi-treated nematodes,−0.46
same,chemotaxis index,srh-104 RNAi-treated nematodes,−0.36
same,chemotaxis index,srh-105 RNAi-treated nematodes,−0.61
same,chemotaxis index,srh-109 RNAi-treated nematodes,−0.91
same,chemotaxis index,srh-111 RNAi-treated nematodes,−0.44
same,chemotaxis index,srh-113 RNAi-treated nematodes,−0.43
same,chemotaxis index,srh-115 RNAi-treated nematodes,−0.82
same,chemotaxis index,srh-116 RNAi-treated nematodes,−0.82
same,chemotaxis index,srh-118 RNAi-treated nematodes,−0.37
same,chemotaxis index,srh-119 RNAi-treated nematodes,−0.35
same,chemotaxis index,srh-120 RNAi-treated nematodes,−0.37
same,chemotaxis index,srh-122 RNAi-treated nematodes,−0.61
same,chemotaxis index,srh-123 RNAi-treated nematodes,−0.32
same,chemotaxis index,srh-125 RNAi-treated nematodes,−0.56
same,chemotaxis index,srh-128 RNAi-treated nematodes,−0.47
same,chemotaxis index,srh-129 RNAi-treated nematodes,−0.56
same,chemotaxis index,srh-130 RNAi-treated nematodes,−0.68
same,chemotaxis index,srh-131 RNAi-treated nematodes,−0.49
same,chemotaxis index,srh-132 RNAi-treated nematodes,−0.19
same,chemotaxis index,srh-139 RNAi-treated nematodes,−0.73
same,chemotaxis index,srh-140 RNAi-treated nematodes,−0.78
same,chemotaxis index,srh-141 RNAi-treated nematodes,−0.49
same,chemotaxis index,srh-142 RNAi-treated nematodes,−0.59
same,chemotaxis index,srh-145 RNAi-treated nematodes,−0.64
same,chemotaxis index,srh-148 RNAi-treated nematodes,−0.67
same,chemotaxis index,srh-154 RNAi-treated nematodes,−0.65
same,chemotaxis index,srh-159 RNAi-treated nematodes,−0.79
same,chemotaxis index,srh-165 RNAi-treated nematodes,−0.49
same,chemotaxis index,srh-166 RNAi-treated nematodes,−0.74
same,chemotaxis index,srh-167 RNAi-treated nematodes,−0.28
same,chemotaxis index,srh-169 RNAi-treated nematodes,−0.62
same,chemotaxis index,srh-174 RNAi-treated nematodes,−0.45
same,chemotaxis index,srh-179 RNAi-treated nematodes,−0.60
same,chemotaxis index,srh-182 RNAi-treated nematodes,−0.86
same,chemotaxis index,srh-186 RNAi-treated nematodes,−0.64
same,chemotaxis index,srh-190 RNAi-treated nematodes,−0.64
same,chemotaxis index,srh-193 RNAi-treated nematodes,−0.92
same,chemotaxis index,srh-195 RNAi-treated nematodes,−0.47
same,chemotaxis index,srh-201 RNAi-treated nematodes,−0.93
same,chemotaxis index,srh-203 RNAi-treated nematodes,−0.95
same,chemotaxis index,srh-204 RNAi-treated nematodes,−0.90
same,chemotaxis index,srh-206 RNAi-treated nematodes,−0.94
same,chemotaxis index,srh-207 RNAi-treated nematodes,−0.81
same,chemotaxis index,srh-208 RNAi-treated nematodes,−0.60
same,chemotaxis index,srh-209 RNAi-treated nematodes,−0.85
same,chemotaxis index,srh-210 RNAi-treated nematodes,−0.77
same,chemotaxis index,srh-214 RNAi-treated nematodes,−0.98
same,chemotaxis index,srh-216 RNAi-treated nematodes,−0.68
same,chemotaxis index,srh-217 RNAi-treated nematodes,−0.82
same,chemotaxis index,srh-220 RNAi-treated nematodes,−0.47
same,chemotaxis index,srh-222 RNAi-treated nematodes,−0.77
same,chemotaxis index,srh-223 RNAi-treated nematodes,−0.75
